Experimental data as given in patent publication US20240254119A1 (THIRD HARMONIC BIO, INC., priority 2022, published 2024).
pIC50: −log10 of the molar value.

Experiments:
CYP3A4 = test: Hepatocyte CYP induction assay, CYP3A4 gene expression; assay type: in vitro ADME; conditions: human hepatocytes
Experimental: Exemplary compounds were tested for ability to induce CYP3A4 and/or CYP1A2 in hepatocytes. Procedures and results are described below.
Cryopreserved human hepatocytes were purchased from BioIVT (Baltimore, MD, USA), and they were stored in liquid nitrogen before using. The detailed information of hepatocytes is as follows:
Fresh dosing solutions of test compounds, and Rifampicin were prepared in the incubation medium on the day of dosing.
Cryopreserved hepatocytes were thawed and counted to determine yield, viability was measured. Hepatocytes at the concentrations of 0.7 million/mL were transferred to collagen-coated 96-well plates for attachment (0.1 mL viable cells/well). After allowing 4 to 5 hours for attachment of cells, the plating medium was replaced with Incubation Medium containing 2% (v/v) Matrigel™ (sandwich medium) and the hepatocytes were incubated until use.
All incubations were conducted at 37° C., 5% CO2, and saturated humidity.
The sandwich medium was removed and the hepatocytes were treated with incubation solutions containing test articles in vehicle (0.1% DMSO), or positive control for 24 hours after the cultures were established. The incubation solution was aspirated and replaced with incubation solution containing the same concentrations of test articles, vehicle, or positive controls for an additional 24 hours. The total treatment period was 48 hours. Triplicate were used for each concentration of test compound and positive control.
After treatment period of 48 hours, the incubation solution was aspirated. Hepatocytes were washed once with pre-warmed HBSS and incubated with 140 μL of RLT (lysis buffer from Rneasy 96 Kit) supplemented with 1% β-mercaptoethanol. Plates were then stored at ≤−60° C. freezer until RNA analysis.
Before RNA extraction, the frozen plate was thawed and cell lysates were transferred to 96-well plates. RNA isolation was performed using QIAcube HT System. RNA concentration was measured with NanoDrop ND-2000 spectrophotometer. The purity of RNA preparation was calculated by the ratio of the OD260 nm/OD280 nm and the acceptable range is between 1.8 and 2.2. Reverse transcription was performed to obtain cDNA. Quantification of the selective genes by real time quantitative Polymerase Chain Reaction (qPCR) was performed with TaqMan universal PCR Master Mix on the BIO-RAD CFX 384 Touch Real Time PCR System. The following setting were used: 50° C. for 2 minutes, 95° C. for 10 minutes, 40 cycles of 95° C. for 15 seconds and 60° C. for 1 minute. 18S rRNA was used as the internal standard.
To account for variation in RNA yields and reverse transcription polymerase chain reaction (RT-PCR), the gene of interest in all samples was normalized to an internal control gene (18S ribosomal RNA) (Cttarget gene−Ct18S=ΔCt).
The relative quantitation or change in mRNA level of selected genes induced by each test compound was expressed in relation to the vehicle control sample (Δctcompound−ΔCtvehicle=ΔΔCt). Fold changes in gene expression were determined by taking 2 to the power of this value (2^−ΔΔt).
% of positive control [(fold change in treated sample)−1]/[(fold change in positive control)−1]×100

Kinetic solubility assay = assay type: physicochemical; conditions: for Solubility (μM): kinetic solubility, 50 mM PB (pH 7.4), shaken 24 hours at RT
Procedure, shortened: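 Concentration in the filtrate was determined by UPLC-UV or HPLC-UV with a standard curve. Before that, compound (10 mM DMSO stock) in 50 mM PB at pH 7.4 was agitated 24 h at room temperature, then PTFE-filtered with centrifugation.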

wtKIT = molecular target: T1, wtKIT (Homo sapiens, UniProt P10721); test: Caliper biochemical assay, wtKIT; conditions: Table 6, read-out: KIT Biochemical IC50 avg
T1 construct: 1888289AM in the reaction mixtures
Procedure, shortened: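 Mobility-shift read-out: after EDTA stop, fluorescent peptide substrate and product resolved electrophoretically on LabChip 3000. Reaction ran 3 h at 25° C with 400 μM ATP, Mn^2+ cofactor, 5.0 nM wtKIT, 1 μM FAM-peptide, pH 7.5 HEPES buffer; no-enzyme wells defined full inhibition.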

PDGFRα = molecular target: T2, PDGFRα (Homo sapiens, UniProt P16234); test: Caliper biochemical assay, PDGFRα; conditions: Table 6
T2 construct: purchased Millipore 14-467 (lot 26321_ACTI)
Procedure, shortened: (§1)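 Mobility-shift readout: after EDTA quench, fluorescent peptide and product are resolved electrophoretically on a LabChip and measured by fluorescence. Reactions contain enzyme, carboxyfluorescein peptide, ATP, Mn^2+ and compound, run 3 h at 25° C; 100% inhibition control lacks enzyme.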

CSF-1R = molecular target: T3, CSF-1R (Homo sapiens, UniProt P07333); test: Caliper biochemical assay, CSF-1R; conditions: Table 6
T3 construct: purchased Invitrogen PV3249 (lot 662393N)
Procedure, shortened: as §1

[1] = Three time point assay for plasma, brain and testes distribution after oral dosing; assay type: in vivo, rat; conditions: rat, oral dosing
Experimental: Exemplary compounds were tested for distribution in plasma, brain and testes tissue following oral dosing of the compounds in rats. Procedures and results are described below.
Male SD Rats were group-housed (up to four animals/sex/cage) in polysulfone cages with certified aspen wood bedding during acclimation and study period.
Certified rodent diet and water was provided to all animals ad libitum, unless fasting for study procedures.
Appropriate amount of test article was accurately weighed and mixed with an appropriate volume of vehicle to get a clear solution or a uniform suspension; vortexing or sonication in water bath may also be need. Animals were dosed within four hours after the formulation is prepared.
For PO dosing, the dose formulation was administered via oral gavage following facility SOPs. The dose volume was determined by the animals' body weight collected on the morning of dosing day. The dose was 10 mg/kg.
Each blood collection (about 1 mL per time point at one or more of 0.5 h, 2 h, 3 h, 5.3 h, and 7 h) was performed from jugular vein or other suitable site of each animal into pre-chilled commercial EDTA-K2 tubes and placed on wet ice until centrifugation.
Blood samples were processed for plasma by centrifugation at approximately 4° C., 3,200 g for 10 min. Plasma was collected respectively and transferred into pre-labeled 96 well plate or polypropylene tubes, quick frozen over dry ice and kept at −60° C. or lower until LC-MS/MS analysis.
Rat brain was perfused with PBS to remove blood before harvest.
After perfusion, brain and testis were homogenized using homogenizing buffer (15 mM PBS (pH7.4):MeOH=2:1) at the ratio of 1:9 (1 g tissue with 9 mL buffer, the dilution ratio is 10). The brain homogenate was kept at −60° C. or lower until LC-MS/MS analysis. General sample processing procedure (brain homogenate & testis homogenate) using 96-well plate: • 1). An aliquot of 40 μL unknown sample, calibration standard, quality control and dilution quality control (if have), single blank, and double blank sample was added to the 96-well plate respectively; • 2). Each sample (except the double blank) was quenched with 400 μL of IS1 respectively (double blank sample was quenched with 400 μL of I), and then the mixture was vortex-mixed for 10 min at 800 rpm and centrifuged for 15 min at 3220×g, 4° C.; • 3). An aliquot of 50 μL supernatant was transferred to another clean 96-well plate and centrifuged for 5 min at 3220×g, 4° C., then the supernatant was directly injected for LC-MS/MS analysis.
• 1. A LC-MS/MS method for the quantitative determination of test compound in biological matrix was developed under Non-GLP compliance. • 2. A calibration curve with at least 6 non-zero calibration standards was applied for the method including LLOQ. • 3. A set of QCs consisting of low, middle, and high concentrations were applied for the method. • 4. N in 1 cassette LC-MS/MS method was developed for samples coming from different studies and the interference among all cassette analytes was evaluated during the method development. • 5. Cassette administration assay was performed if the mass difference (Δmass) among different analytes was more than 4 Da. In this case, interference evaluation was not necessary.
• 1. If sample number within a batch was ≤12, at least one set of standard curve separated with two parts through begin and end of the sequence, was included in the run, and QCs were not required. The recommended injection order was C8, C6, C4, C2, study samples, C7, C5, C3, C1. • 2. If sample number within a batch was >12, one standard curve and two sets of QCs with low, middle and high concentrations were applied for bioanalysis. Meanwhile, QCs number should be more than 5% of study sample number. • 3. Samples with the same types of matrix in different studies were quantified in one analysis run by using the developed N in 1 cassette LC-MS/MS method. • 4. […]

T3 sequence (P07333 20-972): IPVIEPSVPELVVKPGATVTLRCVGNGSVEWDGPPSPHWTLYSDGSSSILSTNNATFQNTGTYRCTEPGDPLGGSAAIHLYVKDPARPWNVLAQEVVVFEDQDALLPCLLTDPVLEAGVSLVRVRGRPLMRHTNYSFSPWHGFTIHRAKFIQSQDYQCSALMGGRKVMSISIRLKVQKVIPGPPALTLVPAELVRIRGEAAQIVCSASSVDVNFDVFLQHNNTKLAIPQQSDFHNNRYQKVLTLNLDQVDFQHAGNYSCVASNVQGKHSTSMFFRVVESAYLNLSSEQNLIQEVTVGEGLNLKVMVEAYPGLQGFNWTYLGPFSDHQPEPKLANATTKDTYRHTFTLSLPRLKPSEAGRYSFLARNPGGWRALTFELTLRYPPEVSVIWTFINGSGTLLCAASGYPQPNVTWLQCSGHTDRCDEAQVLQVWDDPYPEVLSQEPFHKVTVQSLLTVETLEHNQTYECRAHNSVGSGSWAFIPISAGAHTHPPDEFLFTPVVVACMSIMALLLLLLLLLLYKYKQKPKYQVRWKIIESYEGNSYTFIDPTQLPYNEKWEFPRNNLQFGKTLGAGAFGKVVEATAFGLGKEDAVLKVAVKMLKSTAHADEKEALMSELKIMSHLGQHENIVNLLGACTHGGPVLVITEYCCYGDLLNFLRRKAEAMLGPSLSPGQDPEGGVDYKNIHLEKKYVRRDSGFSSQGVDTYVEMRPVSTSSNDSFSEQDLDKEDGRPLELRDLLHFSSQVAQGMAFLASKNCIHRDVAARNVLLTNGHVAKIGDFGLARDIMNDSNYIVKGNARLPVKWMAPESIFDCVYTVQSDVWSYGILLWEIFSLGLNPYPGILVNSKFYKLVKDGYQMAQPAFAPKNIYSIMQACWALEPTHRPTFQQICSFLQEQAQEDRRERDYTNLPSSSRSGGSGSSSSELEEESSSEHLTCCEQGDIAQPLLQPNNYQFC
T1 sequence (P10721 26-976): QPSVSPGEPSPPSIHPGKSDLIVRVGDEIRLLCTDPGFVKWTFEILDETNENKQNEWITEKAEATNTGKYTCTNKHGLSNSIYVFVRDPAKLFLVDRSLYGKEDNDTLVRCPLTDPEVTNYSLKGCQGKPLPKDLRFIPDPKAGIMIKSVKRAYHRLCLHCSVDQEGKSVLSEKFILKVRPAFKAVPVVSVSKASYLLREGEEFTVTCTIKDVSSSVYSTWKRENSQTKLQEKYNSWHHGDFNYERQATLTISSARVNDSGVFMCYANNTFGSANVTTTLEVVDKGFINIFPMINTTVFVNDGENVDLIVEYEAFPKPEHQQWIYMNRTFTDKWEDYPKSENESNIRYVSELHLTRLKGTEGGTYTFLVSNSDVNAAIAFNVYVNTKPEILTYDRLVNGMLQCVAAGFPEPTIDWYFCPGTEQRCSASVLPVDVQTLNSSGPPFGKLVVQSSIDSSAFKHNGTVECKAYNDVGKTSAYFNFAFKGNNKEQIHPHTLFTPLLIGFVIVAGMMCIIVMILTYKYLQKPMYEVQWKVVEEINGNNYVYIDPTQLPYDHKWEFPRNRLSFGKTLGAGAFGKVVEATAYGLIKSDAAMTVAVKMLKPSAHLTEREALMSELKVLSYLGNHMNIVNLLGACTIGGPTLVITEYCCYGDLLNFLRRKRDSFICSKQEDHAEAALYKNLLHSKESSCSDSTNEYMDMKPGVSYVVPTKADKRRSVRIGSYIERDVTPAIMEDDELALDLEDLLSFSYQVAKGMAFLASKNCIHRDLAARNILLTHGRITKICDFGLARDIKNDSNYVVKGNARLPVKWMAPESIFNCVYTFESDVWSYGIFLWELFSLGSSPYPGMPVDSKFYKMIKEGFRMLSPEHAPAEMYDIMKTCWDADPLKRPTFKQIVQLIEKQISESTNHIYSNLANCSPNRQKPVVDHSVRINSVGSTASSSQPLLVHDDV
T2 sequence (P16234 24-1089): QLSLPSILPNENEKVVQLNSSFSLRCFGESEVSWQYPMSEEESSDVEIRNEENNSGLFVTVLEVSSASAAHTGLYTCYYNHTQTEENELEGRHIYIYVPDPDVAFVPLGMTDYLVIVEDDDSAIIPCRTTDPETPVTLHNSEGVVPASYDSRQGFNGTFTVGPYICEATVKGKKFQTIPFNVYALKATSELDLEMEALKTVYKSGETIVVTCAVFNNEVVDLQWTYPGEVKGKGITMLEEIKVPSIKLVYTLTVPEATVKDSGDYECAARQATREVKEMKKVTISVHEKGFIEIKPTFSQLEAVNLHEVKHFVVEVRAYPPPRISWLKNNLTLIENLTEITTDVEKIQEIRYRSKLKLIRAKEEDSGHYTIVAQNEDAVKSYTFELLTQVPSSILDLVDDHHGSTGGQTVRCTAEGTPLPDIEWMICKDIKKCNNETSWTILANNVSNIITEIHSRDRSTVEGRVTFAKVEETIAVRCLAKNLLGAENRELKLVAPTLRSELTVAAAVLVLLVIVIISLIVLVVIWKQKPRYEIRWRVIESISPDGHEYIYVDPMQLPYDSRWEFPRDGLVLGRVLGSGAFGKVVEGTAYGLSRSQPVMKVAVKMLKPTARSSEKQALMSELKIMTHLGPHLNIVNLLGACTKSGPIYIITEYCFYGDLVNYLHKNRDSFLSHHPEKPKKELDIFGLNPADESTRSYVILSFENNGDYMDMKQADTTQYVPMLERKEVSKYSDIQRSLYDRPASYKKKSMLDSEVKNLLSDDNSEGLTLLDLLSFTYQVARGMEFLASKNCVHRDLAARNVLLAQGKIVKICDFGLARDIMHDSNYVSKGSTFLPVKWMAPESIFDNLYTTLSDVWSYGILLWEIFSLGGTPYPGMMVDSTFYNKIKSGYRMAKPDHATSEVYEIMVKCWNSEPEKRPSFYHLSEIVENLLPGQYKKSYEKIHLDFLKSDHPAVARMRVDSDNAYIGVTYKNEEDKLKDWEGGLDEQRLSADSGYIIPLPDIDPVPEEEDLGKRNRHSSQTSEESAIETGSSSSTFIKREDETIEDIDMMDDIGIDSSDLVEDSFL

Structure (SMILES): COC(=O)N1CC(c2nc(-c3ccc(C)c(NC(=O)c4cnn5ccccc45)c3)no2)C1 [Compound B, reference compound]
- CYP 3A4 induction mRNA: Mean fold at 10 μM (CYP3A4; donor four): ++ (induction fold of greater than 2-fold to less than or equal to 3-fold)

Structure (SMILES): Cc1ccc(-c2noc(C3CC(F)(F)C3)n2)cc1NC(=O)c1cnc2ccccn12 [Compound A, reference compound]
- solubility at 24 h (Kinetic solubility assay; phosphate buffer, pH 7.4, aqueous buffer, kinetic from dmso stock): ≤ 2 µM
- CYP 3A4 induction mRNA: Mean fold at 10 μM (CYP3A4; donor two): +++ (induction fold of greater than 3-fold to less than or equal to 10-fold)

Structure (SMILES): CCc1nc(-c2ccc(C)c(NC(=O)c3cnc4ccccn34)c2)no1 [Compound I-283]
- Solubility (μM) (Kinetic solubility assay): ** (a solubility greater than 10 μM and less than or equal to 50 μM)
- pIC50 (wtKIT): ≥ 7.30
- pIC50 (PDGFRα): 4.52 to 5.30
- pIC50 (CSF-1R): ≥ 7.30
- CYP 3A4 induction mRNA: Mean fold at 10 μM (CYP3A4; donor two): ++++ (induction fold of greater than 10-fold)

Structure (SMILES): Cc1ccc(-c2noc([C@H]3C[C@@H]3F)n2)cc1NC(=O)c1cnc2cc(CC(F)(F)F)ccn12 [Compound I-45]
- Solubility (μM) (Kinetic solubility assay): **** (a solubility less than or equal to 2 μM)
- CYP 3A4 induction mRNA: Mean fold at 10 μM (CYP3A4; donor four): ++ (induction fold of greater than 2-fold to less than or equal to 3-fold)

Structure (SMILES): COc1ccn2c(C(=O)Nc3cc(-c4noc(CC(O)C(F)F)n4)ccc3C)cnc2c1 (single isomer, unassigned) [Compound I-40]
- Solubility (μM) (Kinetic solubility assay): **** (a solubility less than or equal to 2 μM)
- Brain concentration ([1]; time point 0.5 h): 63.2 ng/g
- Kp brain/plasma ([1]; time point 0.5 h): 0.09
- Kp testes/plasma ([1]; time point 0.5 h): 0.17
- Plasma concentration ([1]; time point 0.5 h): 712 ng/mL
- Testes concentration ([1]; time point 0.5 h): 123 ng/g
- Brain concentration ([1]; time point 2 h): 144 ng/g
- Kp brain/plasma ([1]; time point 2 h): 0.08
- Kp testes/plasma ([1]; time point 2 h): 0.32
- Plasma concentration ([1]; time point 2 h): 1770 ng/mL
- Testes concentration ([1]; time point 2 h): 568 ng/g
- Brain concentration ([1]; time point 7 h): 65.4 ng/g
- Kp brain/plasma ([1]; time point 7 h): 0.09
- Kp testes/plasma ([1]; time point 7 h): 0.41
- Plasma concentration ([1]; time point 7 h): 764 ng/mL
- Testes concentration ([1]; time point 7 h): 300 ng/g
- CYP 3A4 induction mRNA: Mean fold at 10 μM (CYP3A4; donor five): ++ (induction fold of greater than 2-fold to less than or equal to 3-fold)
- CYP 3A4 induction mRNA: Mean fold at 10 μM (CYP3A4; donor one): +++ (induction fold of greater than 3-fold to less than or equal to 10-fold)

Structure (SMILES): COc1ccn2c(C(=O)Nc3cc(-c4noc(C5COC5)n4)ccc3C)cnc2c1 [Compound I-51]
- Solubility (μM) (Kinetic solubility assay): **** (a solubility less than or equal to 2 μM)
- CYP 3A4 induction mRNA: Mean fold at 10 μM (CYP3A4; donor four): ++ (induction fold of greater than 2-fold to less than or equal to 3-fold)

Structure (SMILES): Cc1ccc(-c2noc(CC(O)C(F)F)n2)cc1NC(=O)c1cnn2ccccc12 (single isomer, unassigned) [Compound I-39]
- Solubility (μM) (Kinetic solubility assay): **** (a solubility less than or equal to 2 μM)
- CYP 3A4 induction mRNA: Mean fold at 10 μM (CYP3A4; donor four): ++ (induction fold of greater than 2-fold to less than or equal to 3-fold)

Structure (SMILES): CCCS(=O)(=O)N1CC(c2nc(-c3ccc(C)c(NC(=O)c4cnc5ccccn45)c3)no2)C1 [Compound C, reference compound]
- CYP 3A4 induction mRNA: Mean fold at 10 μM (CYP3A4; donor four): +++ (induction fold of greater than 3-fold to less than or equal to 10-fold)
